Test results reported in article PMC8426299, “Effect of severe renal impairment on the pharmacokinetics of brigatinib” (Investigational New Drugs, 2021).
Where two headings read alike, the source gives them in different places.

Tests used:
[1] = Open-label single-dose (brigatinib 90 mg oral, fasting) plasma pharmacokinetic study, severe renal impairment vs matched healthy volunteers; type: in vivo, human; set-up: Cmax,u LS Mean (SE): unit not given beside the values; conditions: for half-life / Cmax: human, plasma, 90 mg; for half-life: oral, after a single dose, read-out: mean t1/2 (converted); for Cmax: po, read-out: total brigatinib Cmax, geometric mean (CV%); for Cmax / Tmax, median (range): single oral 90 mg; for V/F,u, geometric mean (geometric % CV): unbound apparent volume of distribution; for Cmax,u, Range / Cmax,u, geometric mean (geometric % CV): unbound
Protocol: This was an open-label, parallel-group study that enrolled patients with severe renal impairment and matched healthy volunteers with normal renal function. The study consisted of a 28-day screening period and a single nine-day inpatient treatment period (day − 1 to day 8). On the morning of day 1, each participant received a single oral dose of brigatinib 90 mg under fasting conditions.Participants were required to abstain from food for approximately 10 h prior to study drug administration and for approximately four hours postdose, with the exception of the standardized snack. Due to the high prevalence of diabetes in patients with severe renal impairment, the standardized snack (not high fat or high calorie) was given to all participants at 2.5 h postdose. Water was permitted ad libitum except for one hour prior to dosing and for approximately one hour postdose. Participants underwent end-of-study procedures and were discharged from the clinical site on day 8.
Healthy volunteers with normal renal function (eGFR ≥ 90 mL/min/1.73 m^2) were matched to patients with severe renal impairment by age (± 10 years), sex, body mass index (BMI; ±15 % at screening), and if possible, smoking habits. Patients with severe renal impairment were defined as those with an eGFR < 30 mL/min/1.73 m^2. eGFR was calculated using the Modification of Diet in Renal Disease equation (MDRD). Estimated creatinine clearance was based on the Cockcroft-Gault equation.
Blood samples were collected before brigatinib administration (predose) and at 0.5, 1, 1.5, 2, 2.5, 3, 4, 6, 8, 12, 24, 36, 48, 60, 72, 96, 120, 144, and 168 h after brigatinib administration to determine plasma brigatinib concentrations. Urine was collected predose and during intervals (0–8, 8–12, 12–24, 24–48, 48–72, 72–96, 96–120, and 120–168 h) after brigatinib administration to determine urine brigatinib concentrations. Urine samples were subsequently diluted 50:50 (v:v) urine:isopropanol at the clinical site.
Plasma and urine samples were analyzed by Charles River Laboratories, Inc. (Worcester, MA, USA) by LC-MS/MS, as previously reported. Plasma samples were analyzed using a dual-range assay with a lower limit of quantitation of 0.100 ng/mL and an upper limit of 2500 ng/mL [11]. Urine samples were analyzed using a single-range assay with a lower limit of quantitation of 25.0 ng/mL and upper limit of 2500 ng/mL [11].
Individual participant plasma concentration-time profiles were analyzed via noncompartmental analysis methods using Phoenix WinNonlin (version 6.4) to estimate PK parameters. Plasma PK parameters calculated for brigatinib included maximum observed plasma concentration (Cmax); Tmax; area under the plasma concentration-time curve from time zero to the time of the last measurable concentration (AUC0 − last); AUC from time zero to infinity (AUC0−∞); terminal elimination half-life (t1/2); apparent oral clearance (CL/F); and apparent volume of distribution (V/F). The fraction of unbound brigatinib in plasma was determined using the following formula: % free (unbound) = [free brigatinib concentration measured in buffer after RED]/[total concentration measured in plasma] X 100. Unbound brigatinib plasma PK parameters (except unbound CL/F and V/F, which were calculated as total CL/F or total V/F divided by the overall mean fraction unbound) were calculated using the following formula: unbound PK parameter = (parameter based on total concentrations) x (individual participant’s overall mean fraction unbound value). Urinary PK parameters included the amount of brigatinib excreted from time zero to time t (Ae0 − t,), fraction of the dose excreted (%) from time zero to time t (Fe0 − t), and renal clearance (CLR).
Descriptive statistics, including number of observations (n), arithmetic mean, standard deviation (SD), coefficient of variation (CV%), median, minimum, and maximum, were calculated for each time point for brigatinib plasma concentrations in each study group. […]

[2] = Safety assessment (adverse events, laboratory, ECG, vital signs) in the single-dose study; type: in vivo, human; conditions: single 90 mg dose
Protocol: Adverse events were recorded throughout the study. Physical examinations were performed at screening and on days − 1 and 8; height, weight, and BMI were collected only at screening. Vital signs were recorded at screening; on day − 1; at 0.5, 1, 2, 3, 4, 6, 8, 12, 24, 36, 48, 60, 72, 96, 120, and 144 h after brigatinib administration; and on day 8. Electrocardiograms were conducted at screening, day − 1, before the brigatinib dose, 3 and 48 h after brigatinib, and on day 8. Clinical laboratory evaluations were performed at screening and on days − 1 and 8.
Descriptive statistics, including number of observations (n), arithmetic mean, standard deviation (SD), coefficient of variation (CV%), median, minimum, and maximum, were calculated for each time point for brigatinib plasma concentrations in each study group. Arithmetic mean; SD; CV%; median, minimum, and maximum values; and geometric mean and geometric CV% were calculated for all PK parameters except Tmax, which was reported as median (minimum, maximum). Statistical comparisons of brigatinib PK parameters (unbound) were made using a one-factor analysis of variance, and 90 % CIs for the geometric mean ratios (GMRs) were calculated for the comparison of Cmax, AUC0 − last, and AUC0−∞ between study groups. Descriptive statistics were used to present safety outcomes, including number and percentage of participants with adverse events.

[3] = tested on: 2C8; set-up: method as in ref 5, 11 = [5]; 5. Alunbrig brigatinib [summary of product characteristics] (2020) Takeda Pharmaceutical Company Limited. https://www.alunbrig.com/assets/pi.pdf . Accessed 9 Mar 2021 || [11]; PMID 31287236; doi:10.1002/cpdd.723; 11. Tugnait M Gupta N Hanley MJ Sonnichsen D Kerstein D Dorer DJ Venkatakrishnan K Narasimhan N Effects of strong CYP2C8 or CYP3A inhibition and CYP3A induction on the pharmacokinetics of brigatinib; conditions: in vitro; cited from earlier work
[4] = set-up: method as in PMID 30570839; conditions: cited from earlier work
[5] = tested on: native EML4-ALK; set-up: method as in PMID 27780853; conditions: compared with crizotinib, ceritinib, and alectinib; nonclinical studies; cited from earlier work
[6] = Severe Renal Impairment (n = 8)
[7] = healthy volunteers with normal renal function
[8] = patients with severe renal impairment
[9] = severe renal impairment compared with normal renal function

In the case of COc1cc(N2CCC(N3CCN(C)CC3)CC2)ccc1Nc1ncc(Cl)c(Nc2ccccc2P(C)(C)=O)n1 [brigatinib], the “V/F,u, Range” value ([1]; Normal Renal Function (n = 8)) is reported as 5898–13,744 L, the “V/F,u, Range” value [1, 6] is reported as 3556 to 8914 L and the “Cmax,u LS Mean (SE)” value ([1]; Severe renal impairment vs. Normal renal function) is reported as 0.130 (0.1330). For the same compound, the half-life [1, 7] was ~42 h, the half-life [1, 8] was ~54 h and the Cmax [1, 7] was 362 ng/mL. The Cmax [1, 8] was 471 ng/mL, the “Tmax, median (range)” value ([1]; normal renal function group) was 2.0 (1.0–4.0) hours and the “total brigatinib AUC0 − last, percent higher” value [1, 9] was “more than 100%”. The “total brigatinib AUC0−∞, percent higher” value [1, 9] was “more than 100%”, the “Tmax, median (range)” value ([1]; severe renal impairment group) was 2.5 (1.0–3.0) hours and the “unbound brigatinib AUC0 − last, percent higher” value ([1]; severe renal impairment versus normal renal function) was 77%. The “V/F,u, geometric mean (geometric % CV)” value ([1]; Normal Renal Function (n = 8)) was 8327 (30.4) L, the “V/F,u, geometric mean (geometric % CV)” value [1, 6] was 5532 (31.4) L and the “Cmax,u, Range” value ([1]; Normal Renal Function (n = 8)) was 23.9 to 45.3 ng/mL. The “Cmax,u, geometric mean (geometric % CV)” value ([1]; Normal Renal Function (n = 8)) was 32.29 (25.1) ng/mL, the “Cmax,u, Range” value [1, 6] was 25.2 to 55.6 ng/mL and the “Cmax,u, geometric mean (geometric % CV)” value [1, 6] was 36.76 (29.0) ng/mL. For the same compound, the “clinically significant laboratory values or electrocardiogram findings” value ([2]; all participants) was “no participant had clinically significant laboratory values or electrocardiogram findings”, the adverse events ([2]; healthy volunteers with normal renal function (n = 8)) was “No healthy volunteers with normal renal function reported adverse events” and the treatment-emergent adverse events ([2]; patients with severe renal impairment (n = 8)) was “Two patients with severe renal impairment reported three treatment-emergent adverse events”. For the same compound, the “contribution of 2C8 to metabolism” value [3] was “minor contribution”, the “effect of a high-fat meal on total exposure (AUC)” value [4] was “no effect” and the “potency and selectivity as inhibitor of native EML4-ALK” value [5] was “more potent and selective inhibitor of native EML4-ALK”.
